Experimental findings from patent US20260325661A1, “ANTIBODY-CONJUGATED IMMUNO-ACTIVATING SMALL MOLECULE COMPOUND, AND USE” (SHENZHEN CONJUGENIX PHARMACEUTICAL TECHNOLOGY CO., LTD, priority 2023, published 2026) are described below.

The test system of one assay is MC38-hPD-L1 cells. The assay can be described thus: Tumor inhibition assay in mice bearing MC38-hPD-L1 colon cancer. Type of assay: in vivo, mouse. To be noted: PD-L1 antibody 3 mg/kg, intraperitoneal, Day 8 and Day 12 after inoculation. Here is the method: MC38-hPD-L1 cells (a humanized MC38 colon cancer cell line expressing human PD-L1 protein, Shanghai Model Organisms Center, Inc.) in the logarithmic phase were collected by digestion and centrifugation, and washed with PBS twice before counting, and the cell concentration was adjusted to 2.3×10^5 cells/mL. The mice were 6-week-old SPF-grade humanized C57BL/6 mice. The right back of the mice was shaved completely with a shaver, and 100 μL of the cell suspension was aspirated with a syringe and injected subcutaneously into the back of the mice after removing bubbles. When the tumor diameter reached 4-5 mm, administration was started.
Assessment of therapeutic effect on tumor-bearing mice and antitumor effect of the compounds: tumor-bearing mice (BALB/c) were randomly divided into control group, Atezolizumab antibody group (PD-L1 antibody group), and PD-L1-KX conjugate group (Atezolizumab-conjugated compound KX) (5 mice per group). […] The tumor was measured with a vernier caliper and the survival of the mice was recorded every three days at the beginning of administration and after administration. The tumor volume was calculated by the following method: 0.5×a×b^2, wherein a is the long-axis diameter and b is the short-axis diameter. […]
As to “Atezolizumab: PD-L1 antibody purchased from MedChemExpress (Atezolizumab, CAS number: 1380723-44-3)”, the “tumor volume inhibition rate (Atezolizumab as control)” value is listed as 67%.

For another assay, the system named is human peripheral blood mononuclear cells (PBMCs). The assay is described as follows: ELISA assay of immunocyte activator: induction of IFN-γ in human PBMCs. Type of assay: cell-based. To be noted: Homo sapiens, PBMC, 24 h, 37 °C, Note a: sample pretreated with human liver microsomal enzyme, 2 h, read-out: EC50 IFN-γ ratio (inducing human PBMCs to produce IFN-γ). In short, it runs like this: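 PBMCs from heparinized blood of healthy donors, isolated by density-gradient centrifugation, seeded at 2×10^5 cells per well. Treated with ten concentrations from 0.0001 to 10 μM in RPMI medium containing 0.1 DMSO; IFN-γ measured by ELISA and EC50 derived.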
(In general: ELISA stands for enzyme-linked immunosorbent assay.)
Regarding `COCCOc1nc(N)c2c(n1)n(Cc1ccc(CNC(=O)CCc3cn(CCOCCOCCOCCNC(=O)OCc4ccc(NC(=O)[C@H](CCCNC(N)=O)NC(=O)[C@@H](NC(=O)CCCCC(=O)O)C(C)C)cc4)nn3)cc1)c(=O)n2C1CCCO1` (stereo partly shown) [Compound K12], the EC50 worked out at 200 nM.

Still in this assay, the particulars now being: Homo sapiens, PBMC, 24 h, 37 °C, no pretreatment marked, read-out: EC50 IFN-γ ratio (inducing human PBMCs to produce IFN-γ).
For `COCCOc1nc(N)c2[nH]c(=O)n(Cc3ccc(CNC(=O)CCC(=O)NC(CCCCNC(=O)OCc4ccc(NC(=O)[C@H](CCCNC(N)=O)NC(=O)[C@@H](NC(=O)CCCCCN5C(=O)C=CC5=O)C(C)C)cc4)C(=O)NCCOCCOCCOCCNC(=O)OC4CC/C=C/CCC4)cc3)c2n1` (stereo partly shown) [Compound K30], the EC50 turned out to be 59 nM.

Consider `CCC[C@H](C)Oc1nc(N)c2[nH]c(=O)n(Cc3cn(C4CCNCC4)nn3)c2n1` [GY228], for which the EC50 turned out to be 54 nM.

Turning to `C=C(CN1CCC(Cn2c(=O)[nH]c3c(N)nc(O[C@@H](C)CCC)nc32)CC1)C(=O)O` [KJ-097], the EC50 is 1 nM.

With `COCCOc1nc(N)c2[nH]c(=O)n(Cc3ccc(CNC(=O)CCC(=O)NC(CCCCc4cn(CCCCN5CCN(CCCNC(=S)N6CCCC(n7nc(-c8ccc(Oc9ccccc9)cc8)c8c(N)ncnc87)C6)CC5)nn4)C(=O)N4CCN(C(=O)OCc5ccc(NC(=O)[C@H](CCCNC(N)=O)NC(=O)[C@@H](NC(=O)CCOCCOCCOCCOCCN6C(=O)C=CC6=O)C(C)C)cc5)CC4)cc3)c2n1` (stereo partly shown) [Compound K27], the EC50 stood at 250 nM.

In the case of `C#Cc1c(F)ccc2cc(O)cc(-c3c(Cl)cc4c(N5CC6CCC(C5)N6C(=O)OCc5ccc(NC(=O)[C@H](CCCNC(N)=O)NC(=O)[C@@H](NC(=O)C(CCCCc6cn(CCOCCOCCOCCNC(=O)CCN7C(=O)C=CC7=O)nn6)NC(=O)CCC(=O)NCc6ccc(Cn7c(=O)[nH]c8c(N)nc(OCCOC)nc87)cc6)C(C)C)cc5)nc(OC[C@@]56CCCN5C[C@H](F)C6)nc4c3F)c12` (stereo partly shown) [Compound K33], the EC50 amounted to 180 nM.

As to `CCC[C@H](C)Oc1nc(N)c2[nH]c(=O)n(CC3CCN(C(=O)/C=C/C(=O)c4ccc(OC)cc4)CC3)c2n1` [KJ-102], the EC50 was 3 nM.

Take `CCCCOc1nc(N)c2[nH]c(=O)n(CCCc3cn(CCOCCOCCOCC(=O)OCC)nn3)c2n1` [GY1401]: the EC50 amounted to 2 nM.

`C=C(CN1CCC(Cn2c(=O)[nH]c3c(N)nc(O[C@@H](C)CCC)nc32)CC1)C(=O)OCC` [KJ-096]: the EC50 was 3 nM.

`C#CCCC(=O)NCc1ccc(Cn2c(=O)[nH]c3c(N)nc(OCCOC)nc32)cc1` [SZU-136, reference compound]: the EC50 was 370 nM.

`COCCOc1nc(N)c2[nH]c(=O)n(Cc3ccc(CNC(=O)CCC(=O)NC(CCCCc4cn(CCOCCOCCOCCNC(=O)CCN5C(=O)C=CC5=O)nn4)C(=O)NCCOCCOCCOCCOc4ccc(-c5nnc(C)nn5)cc4)cc3)c2n1` (stereo not shown) [Compound K25]: the EC50 was 5 nM.

The assay is the same for the next values; noted with them: Homo sapiens, PBMC, 24 h, pH 6, 24 h, 37 °C, Note b: sample pretreated with equimolar glutathione, PBS pH 6, 37 °C, read-out: EC50 IFN-γ ratio (inducing human PBMCs to produce IFN-γ).
For `C=C(COC(=O)n1c(=O)n(Cc2ccc(CNC(=O)CCc3cn(CCOCCOCCOCCOCCN=[N+]=[N-])nn3)cc2)c2nc(OCCOC)nc(N)c21)C(=O)OCC` [Compound K45], the EC50 is 10 nM.
